Literature values in patent US12618855B2, “Serum protein biomarker panel for idiopathic pulmonary fibrosis” (Children's Hospital Medical Center, priority 2019, dated 2026).

Biological target: p110β (Homo sapiens, UniProt P42338)
Conditions: p110β compared with p110α, p110-γ and p110-δ (equipotent)

p110β, sequence (P42338 whole entry, species assumed): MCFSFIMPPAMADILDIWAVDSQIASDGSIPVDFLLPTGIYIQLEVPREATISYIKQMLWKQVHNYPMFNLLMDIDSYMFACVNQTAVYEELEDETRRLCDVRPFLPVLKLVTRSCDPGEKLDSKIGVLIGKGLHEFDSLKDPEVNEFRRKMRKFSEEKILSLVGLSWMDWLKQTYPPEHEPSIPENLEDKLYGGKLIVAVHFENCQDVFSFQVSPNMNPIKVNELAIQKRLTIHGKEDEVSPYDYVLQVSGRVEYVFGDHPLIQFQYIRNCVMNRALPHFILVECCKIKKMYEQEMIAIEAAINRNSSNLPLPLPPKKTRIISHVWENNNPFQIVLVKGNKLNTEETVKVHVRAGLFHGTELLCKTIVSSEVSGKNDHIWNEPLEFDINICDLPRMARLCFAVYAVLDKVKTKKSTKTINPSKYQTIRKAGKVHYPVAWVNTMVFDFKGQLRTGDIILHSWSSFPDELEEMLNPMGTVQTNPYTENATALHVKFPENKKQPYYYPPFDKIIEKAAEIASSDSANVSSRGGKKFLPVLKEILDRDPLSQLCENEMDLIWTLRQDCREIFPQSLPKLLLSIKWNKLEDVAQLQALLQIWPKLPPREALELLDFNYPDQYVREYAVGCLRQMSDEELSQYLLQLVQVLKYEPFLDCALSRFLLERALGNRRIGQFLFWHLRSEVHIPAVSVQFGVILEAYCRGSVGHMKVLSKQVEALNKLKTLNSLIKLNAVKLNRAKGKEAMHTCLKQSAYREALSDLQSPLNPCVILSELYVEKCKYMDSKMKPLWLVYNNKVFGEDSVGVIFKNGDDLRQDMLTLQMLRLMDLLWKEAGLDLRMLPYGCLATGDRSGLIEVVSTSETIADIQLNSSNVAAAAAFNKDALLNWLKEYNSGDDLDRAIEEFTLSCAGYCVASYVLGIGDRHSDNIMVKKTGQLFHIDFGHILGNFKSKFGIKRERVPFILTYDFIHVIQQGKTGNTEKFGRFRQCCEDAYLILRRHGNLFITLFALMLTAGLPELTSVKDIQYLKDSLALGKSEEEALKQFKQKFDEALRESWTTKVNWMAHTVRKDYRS
p110β, sequence (P27986 whole entry partner, species assumed): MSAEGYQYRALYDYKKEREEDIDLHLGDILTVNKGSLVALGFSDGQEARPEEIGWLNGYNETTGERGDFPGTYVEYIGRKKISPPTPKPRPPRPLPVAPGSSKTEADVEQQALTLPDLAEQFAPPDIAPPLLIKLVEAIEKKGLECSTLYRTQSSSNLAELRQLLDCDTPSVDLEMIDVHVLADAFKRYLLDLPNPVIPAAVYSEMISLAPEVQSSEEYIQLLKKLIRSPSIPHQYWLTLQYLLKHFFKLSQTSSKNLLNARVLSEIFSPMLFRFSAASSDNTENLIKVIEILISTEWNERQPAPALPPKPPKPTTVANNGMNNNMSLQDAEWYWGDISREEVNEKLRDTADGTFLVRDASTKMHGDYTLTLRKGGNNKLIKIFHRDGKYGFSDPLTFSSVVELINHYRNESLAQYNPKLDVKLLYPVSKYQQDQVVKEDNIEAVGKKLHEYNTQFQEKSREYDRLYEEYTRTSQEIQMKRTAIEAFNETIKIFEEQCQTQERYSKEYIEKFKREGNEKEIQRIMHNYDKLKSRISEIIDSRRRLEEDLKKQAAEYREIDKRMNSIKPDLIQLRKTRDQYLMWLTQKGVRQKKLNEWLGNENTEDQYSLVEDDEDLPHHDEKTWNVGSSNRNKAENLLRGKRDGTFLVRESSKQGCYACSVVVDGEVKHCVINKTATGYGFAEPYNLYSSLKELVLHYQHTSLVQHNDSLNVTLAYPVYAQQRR

## Cc1nc(-c2cn3c(n2)-c2ccc(-c4cnn(C(C)(C)C(N)=O)c4)cc2OCC3)n(C(C)C)n1 [Taselisib]
  lower potency of p110β inhibition: 30 fold
